According to ChEMBL document CHEMBL1201862, “PubChem BioAssay data set” (2004):
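Tested at 5 concentrations; 48 h exposure; 96-well plates; endpoints linearly interpolated, else capped at highest concentration. GI50: concentration for 50% inhibition of growth.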 The source made the active and inactive calls. Rule as the data show it: active = GI50 up to about 1.1 µM and inactive = higher.

Experiments:
Assay in all cases: NCI anticancer screen, dose series, 48 h
NCI-H460 = test system: NCI-H460
SF-539 = test system: SF-539
SK-OV-3 = test system: SK-OV-3
HCT-116 = test system: HCT-116
MOLT-4 = test system: MOLT-4
HOP-62 = test system: HOP-62
SF-295 = test system: SF-295
A549 = test system: A549
SK-MEL-5 = test system: SK-MEL-5
COLO 205 = test system: COLO 205
NCI-H23 = test system: NCI-H23
OVCAR-5 = test system: OVCAR-5
SK-MEL-28 = test system: SK-MEL-28
UACC-257 = test system: UACC-257
RXF 393 = test system: RXF 393
CCRF-CEM = test system: CCRF-CEM
SW-620 = test system: SW-620
HT-29 = test system: HT-29
LOX IMVI = test system: LOX IMVI
A498 = test system: A498

Measured: GI50

O=C(NN1C(=O)C(Cl)C1c1ccc([N+](=O)[O-])cc1)c1ccccc1O (stereo not drawn)
inactive: NCI-H460 > 100 µM | SF-539 > 100 µM | SK-OV-3 > 100 µM | HCT-116 > 100 µM | MOLT-4 > 100 µM | HOP-62 > 100 µM | SF-295 > 100 µM | A549 > 100 µM | SK-MEL-5 > 100 µM | COLO 205 > 100 µM | NCI-H23 > 100 µM | OVCAR-5 > 100 µM | SK-MEL-28 > 100 µM | UACC-257 > 100 µM | RXF 393 > 100 µM | CCRF-CEM > 100 µM | SW-620 > 100 µM | HT-29 > 100 µM

CC(C)N1CSC(=S)N(Cc2ccccc2)C1
inactive: NCI-H460 > 10 µM | SF-539 1.48 µM | SK-OV-3 > 10 µM | HCT-116 3.01 µM | MOLT-4 2.63 µM | HOP-62 > 10 µM | SF-295 > 10 µM | A549 > 10 µM | SK-MEL-5 4.66 µM | LOX IMVI 3.66 µM | COLO 205 3.94 µM | NCI-H23 3.1 µM | A498 > 10 µM | SK-MEL-28 3.78 µM | RXF 393 2.37 µM | CCRF-CEM 2.78 µM | SW-620 3.18 µM | HT-29 2.43 µM

S=CN1CCCCC1
inactive: NCI-H460 > 100 µM | SF-539 > 100 µM | SK-OV-3 > 100 µM | HCT-116 > 100 µM | MOLT-4 > 100 µM | HOP-62 > 100 µM | SF-295 > 100 µM | A549 > 100 µM | SK-MEL-5 > 100 µM | LOX IMVI > 100 µM | COLO 205 > 100 µM | NCI-H23 > 100 µM | OVCAR-5 > 100 µM | A498 > 100 µM | SK-MEL-28 > 100 µM | UACC-257 > 100 µM | CCRF-CEM > 100 µM | SW-620 > 100 µM | HT-29 > 100 µM

NN1C(=O)C(CCO)S/C1=N/N=C1/SC(CCO)C(=O)N1N (stereo not drawn)
inactive: NCI-H460 > 100 µM | SF-539 > 100 µM | SK-OV-3 > 100 µM | HCT-116 > 100 µM | MOLT-4 > 100 µM | HOP-62 > 100 µM | SF-295 > 100 µM | A549 > 100 µM | SK-MEL-5 > 100 µM | LOX IMVI > 100 µM | COLO 205 > 100 µM | NCI-H23 > 100 µM | OVCAR-5 > 100 µM | A498 > 100 µM | SK-MEL-28 > 100 µM | UACC-257 > 100 µM | RXF 393 > 100 µM | CCRF-CEM > 100 µM | SW-620 > 100 µM | HT-29 > 100 µM

CCOC(=O)C1=C(C)N(c2ccc(OC)cc2)C2(O)C=CC(O)=C3C(=O)c4ccccc4C(=O)C312 (stereo not drawn)
inactive: NCI-H460 11.5 µM | SF-539 6.92 µM | SK-OV-3 13.4 µM | HCT-116 11.3 µM | MOLT-4 3.89 µM | HOP-62 13.8 µM | SF-295 8.77 µM | A549 11.1 µM | SK-MEL-5 11.4 µM | LOX IMVI 7.16 µM | COLO 205 11.5 µM | NCI-H23 16.1 µM | OVCAR-5 15.8 µM | A498 10.5 µM | UACC-257 15.7 µM | CCRF-CEM 3.4 µM | SW-620 13.5 µM | HT-29 17.9 µM

O=C(/C=C/c1ccccc1)CC1OC(=O)c2ccccc21 (stereo not drawn)
inactive: NCI-H460 > 100 µM | SF-539 36.1 µM | SK-OV-3 > 100 µM | HCT-116 31.2 µM | MOLT-4 31 µM | HOP-62 > 100 µM | SF-295 85.5 µM | A549 > 100 µM | SK-MEL-5 > 100 µM | LOX IMVI 49.7 µM | COLO 205 > 100 µM | NCI-H23 47.1 µM | OVCAR-5 > 100 µM | A498 > 100 µM | SK-MEL-28 > 100 µM | UACC-257 81.8 µM | RXF 393 > 100 µM | CCRF-CEM 32.8 µM | SW-620 84.3 µM | HT-29 > 100 µM

CC1=C(C(=O)Nc2cccc(Cl)c2)C(c2ccccc2O)C(C(=O)Nc2cccc(Cl)c2)=C(C)N1
inactive: NCI-H460 21.6 µM | SF-539 16.7 µM | SK-OV-3 24.3 µM | MOLT-4 25.2 µM | HOP-62 19.3 µM | SF-295 22.1 µM | A549 20.2 µM | SK-MEL-5 17.4 µM | LOX IMVI 21.8 µM | COLO 205 20 µM | NCI-H23 17.3 µM | OVCAR-5 19.4 µM | A498 19.5 µM | SK-MEL-28 17.1 µM | UACC-257 20.2 µM | RXF 393 17.2 µM | CCRF-CEM 22.3 µM | SW-620 18.6 µM | HT-29 18.8 µM

CCOC(=O)c1cn(CC)c(=O)n2c1nc1ccccc12
inactive: NCI-H460 35.4 µM | SF-539 55.5 µM | HCT-116 50.6 µM | MOLT-4 14.1 µM | HOP-62 > 100 µM | SF-295 > 100 µM | A549 58.7 µM | SK-MEL-5 49.8 µM | LOX IMVI 31.9 µM | COLO 205 > 100 µM | NCI-H23 55.7 µM | OVCAR-5 > 100 µM | A498 32.4 µM | SK-MEL-28 > 100 µM | UACC-257 > 100 µM | RXF 393 61.9 µM | CCRF-CEM 28.4 µM | SW-620 > 100 µM | HT-29 36.7 µM

CCOc1ccc(NC(=O)/C(CC(=O)c2c[n+]([O-])c3ccccc3[n+]2[O-])=N\OCCCc2ccccc2)cc1
inactive: NCI-H460 > 100 µM | SF-539 > 100 µM | SK-OV-3 > 100 µM | HCT-116 > 100 µM | MOLT-4 > 100 µM | HOP-62 > 100 µM | SF-295 > 100 µM | A549 > 100 µM | COLO 205 > 100 µM | NCI-H23 > 100 µM | OVCAR-5 > 100 µM | A498 > 100 µM | SK-MEL-28 > 100 µM | UACC-257 > 100 µM | RXF 393 > 100 µM | CCRF-CEM 42.2 µM | SW-620 > 100 µM | HT-29 > 100 µM

Nc1nc2cc(COc3ccc(C(=O)O)cc3)ccc2nc1-c1ccccc1
inactive: NCI-H460 > 10 µM | SF-539 > 10 µM | SK-OV-3 > 10 µM | MOLT-4 > 10 µM | HOP-62 > 10 µM | SF-295 > 10 µM | A549 > 10 µM | SK-MEL-5 > 10 µM | LOX IMVI > 10 µM | COLO 205 > 10 µM | NCI-H23 > 10 µM | OVCAR-5 > 10 µM | SK-MEL-28 > 10 µM | UACC-257 > 10 µM | RXF 393 > 10 µM | CCRF-CEM > 10 µM | SW-620 > 10 µM | HT-29 > 10 µM

CCOC(=O)C1=C(C)N(NC(N)=O)C2(O)CCCC(=O)C12C (stereo not drawn)
inactive: SF-539 > 100 µM | SK-OV-3 > 100 µM | HCT-116 > 10 µM | SF-295 > 100 µM | A549 > 100 µM | SK-MEL-5 > 100 µM | LOX IMVI > 100 µM | COLO 205 > 100 µM | NCI-H23 > 100 µM | OVCAR-5 > 100 µM | A498 > 100 µM | SK-MEL-28 > 100 µM | UACC-257 > 100 µM | RXF 393 > 100 µM | SW-620 > 100 µM | HT-29 > 100 µM

CC(=O)NC(c1nc2cc(C)c(C)cc2[nH]1)c1nc2cc(C)c(C)cc2[nH]1
inactive: NCI-H460 11.7 µM | SF-539 14.1 µM | SK-OV-3 17.7 µM | HCT-116 19.1 µM | MOLT-4 2.86 µM | SF-295 22.4 µM | A549 21.3 µM | SK-MEL-5 15.2 µM | LOX IMVI 19 µM | COLO 205 18 µM | NCI-H23 32.2 µM | OVCAR-5 41.7 µM | A498 17.9 µM | SK-MEL-28 17.7 µM | UACC-257 21.3 µM | RXF 393 26.3 µM | CCRF-CEM 7.05 µM | SW-620 22.3 µM | HT-29 15.2 µM

O=c1cccccc1NCCCCCCCCCNc1cccccc1=O
inactive: NCI-H460 9.51 µM | SF-539 6.68 µM | SK-OV-3 33.1 µM | HCT-116 2.74 µM | MOLT-4 5.75 µM | HOP-62 15.1 µM | SF-295 9.64 µM | A549 9.66 µM | LOX IMVI 5.9 µM | COLO 205 3.23 µM | NCI-H23 5.26 µM | OVCAR-5 17.5 µM | UACC-257 2.12 µM | RXF 393 22.5 µM | CCRF-CEM 5.94 µM | SW-620 18.6 µM | HT-29 15.7 µM

Nc1nc(N)c(N=O)c(OCC2CCCCC2)n1
inactive: NCI-H460 6.17 µM | SF-539 8.91 µM | SK-OV-3 19 µM | HCT-116 9.12 µM | MOLT-4 6.64 µM | HOP-62 14.6 µM | SF-295 13 µM | A549 17.8 µM | SK-MEL-5 9.73 µM | LOX IMVI 5.53 µM | COLO 205 12.3 µM | NCI-H23 12.2 µM | OVCAR-5 9.71 µM | A498 18.1 µM | SK-MEL-28 15.7 µM | UACC-257 9.02 µM | RXF 393 7.1 µM | CCRF-CEM 5.36 µM | SW-620 24 µM | HT-29 9.64 µM

Cc1[nH]n(C2=NCCN2)c(=O)c1Cc1ccccc1
inactive: NCI-H460 > 100 µM | SF-539 > 100 µM | SK-OV-3 > 100 µM | HCT-116 > 100 µM | MOLT-4 > 100 µM | HOP-62 > 100 µM | SF-295 > 100 µM | A549 > 100 µM | SK-MEL-5 > 100 µM | LOX IMVI > 100 µM | COLO 205 > 100 µM | NCI-H23 > 100 µM | OVCAR-5 > 100 µM | A498 > 100 µM | UACC-257 > 100 µM | RXF 393 > 100 µM | CCRF-CEM > 100 µM | SW-620 > 100 µM | HT-29 > 100 µM
